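GI50 = concentration required for 50% inhibition of growth. TGI: total growth inhibition.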
Experiments:
Test in all cases: NCI anticancer screen, dose series, 384-well format
CAKI-1 renal = test system: CAKI-1 renal
SK-MEL-5 melanoma = test system: SK-MEL-5 melanoma
NCI-H322M lung = test system: NCI-H322M lung
BT-549 breast = test system: BT-549 breast
HCC-2998 colon = test system: HCC-2998 colon
UACC-62 melanoma = test system: UACC-62 melanoma
SK-OV-3 ovarian = test system: SK-OV-3 ovarian
M14 melanoma = test system: M14 melanoma
NCI-H226 lung = test system: NCI-H226 lung
K-562 leukemia = test system: K-562 leukemia
U251 glioblastoma = test system: U251 glioblastoma
T-47D breast = test system: T-47D breast
SF-268 CNS = test system: SF-268 CNS
MDA-MB-435 melanoma = test system: MDA-MB-435 melanoma
OVCAR-3 ovarian = test system: OVCAR-3 ovarian
MOLT-4 leukemia = test system: MOLT-4 leukemia
NCI-H23 lung = test system: NCI-H23 lung
DU-145 prostate = test system: DU-145 prostate
HOP-92 NSCLC = test system: HOP-92 NSCLC
NCI-H460 NSCLC = test system: NCI-H460 NSCLC
RXF 393 renal = test system: RXF 393 renal
HCT-116 colon = test system: HCT-116 colon
A549 NSCLC = test system: A549 NSCLC
786-0 renal = test system: 786-0 renal
MCF7 breast = test system: MCF7 breast
SNB-19 CNS = test system: SNB-19 CNS
UACC-257 melanoma = test system: UACC-257 melanoma
CCRF-CEM leukemia = test system: CCRF-CEM leukemia
OVCAR-5 ovarian = test system: OVCAR-5 ovarian

## C[C@@H](NC(=O)c1ncnc(N)c1Cl)c1ncc(C(=O)Nc2cc(C(F)(F)F)c(Cl)cn2)s1
CAKI-1 renal
  GI50: 11.6 µM
  TGI: 26.5 µM
SK-MEL-5 melanoma
  GI50: 1.35 µM
  TGI: 15.2 µM
NCI-H322M lung
  GI50: 13 µM
  TGI: 28.1 µM
BT-549 breast
  GI50: 16.2 µM
  TGI: 30.8 µM
HCC-2998 colon
  GI50: 4.74 µM
  TGI: 18.5 µM
UACC-62 melanoma
  GI50: 0.154 µM
  TGI: 1.41 µM
SK-OV-3 ovarian
  GI50: 20.5 µM
  TGI: 42.6 µM
M14 melanoma
  GI50: 0.157 µM
  TGI: 1.16 µM
NCI-H226 lung
  GI50: 15.8 µM
  TGI: 40.4 µM
K-562 leukemia
  GI50: 0.281 µM
  TGI: 1.2 µM
U251 glioblastoma
  GI50: 18 µM
  TGI: 39.1 µM
T-47D breast
  GI50: 10.2 µM
  TGI: 22.7 µM
SF-268 CNS
  GI50: 12.3 µM
  TGI: 24.9 µM
MDA-MB-435 melanoma
  GI50: 1.37 µM
  TGI: 15.9 µM
OVCAR-3 ovarian
  GI50: 16.2 µM
  TGI: 34.1 µM
MOLT-4 leukemia
  GI50: 11.1 µM
  TGI: 23.2 µM
NCI-H23 lung
  GI50: 1.88 µM
  TGI: 8.75 µM
DU-145 prostate
  GI50: 18 µM
  TGI: 35.2 µM
HOP-92 NSCLC
  GI50: 4.23 µM
  TGI: 14.9 µM
NCI-H460 NSCLC
  GI50: 9.03 µM
  TGI: 21.7 µM
RXF 393 renal
  GI50: 18.7 µM
  TGI: 40 µM
HCT-116 colon
  GI50: 2.24 µM
  TGI: 13.6 µM
A549 NSCLC
  GI50: 10.3 µM
  TGI: 27.8 µM
786-0 renal
  GI50: 16.8 µM
  TGI: 32.9 µM
MCF7 breast
  GI50: 14.5 µM
  TGI: 28.7 µM
SNB-19 CNS
  GI50: 29.4 µM
  TGI: 91.4 µM
UACC-257 melanoma
  GI50: 0.406 µM
  TGI: 2.48 µM
CCRF-CEM leukemia
  GI50: 12.8 µM
  TGI: 25.5 µM
OVCAR-5 ovarian
  GI50: 5.67 µM
  TGI: 29.6 µM
